In the experiment the test system is M. incognita J2 larvae. The experiment is described as follows: Meloidogyne incognita in vitro larval mobility assay. Conditions: 45 μM, 4 days; for Replicate 1 z-score / Replicate 2 z-score: z-score vs untreated DMSO wells; for pest or weed control at 45 µM: Meloidogyne incognita, 96 h. The experiment is classed as in vivo. The protocol: M. incognita (Kofoid & White) Chitwood Race 1 (originally isolated in Maryland) was used for all experiments, and was maintained on pepper (Capsicum annuum L.) cv. PA-136 in a greenhouse as previously described^44. Infective J2 juveniles were collected as described in ref. 45. The microwell dose-response experiments were carried out similarly to previously described protocols^44,46. In brief, 50 μL of deionized water was added to the wells of 96-well polystyrene plates and 0.5 μL of test compound (or DMSO alone) was added to each well. Approximately 35 J2s were then added to each well in 49.5 μL of deionized water. The chemicals were tested at 45 μM, and the final concentration of DMSO in each well was 0.5% (v/v). DMSO alone was added to 3 separate wells. The plates were covered with plastic adhesive strips, and the lids of the plates were sealed with parafilm. The plates were incubated at 25° C. without shaking for 4 days. The percent of worms that were immobile (% immobile) was quantified by counting the number of immobile worms after 4 days of incubation, dividing the number of immobile worms by the total number of worms in the well, and then multiplying by 100. Two replicates were performed for each treatment. The z-score for each treatment was calculated using the mean and standard deviation of the untreated DMSO control wells. The average % immobile value was calculated across the two replicates. A test compound was considered most promising if the z-score was greater than 1.645 in both replicates.

[1] abbreviates: average of the two replicates, read-out: Average % Immobile.
Setting [2] is: replicate 1, read-out: Replicate 1 % Immobile.
Setting [3] is: replicate 2, read-out: Replicate 2 % Immobile.

Like-named read-outs stand apart in the source and are kept apart here.

For the molecule `COc1ccc(-c2cn3ccsc3n2)cc1` [I-142], where the note is “replicate 1”, the “Replicate 1 z-score” value was “[2.76]”. Further, the “Replicate 2 z-score” value (replicate 2) was “[1.68]”. Moreover, the pest or weed control at 45 µM runs as follows: under setting [1], 27.6%; under setting [2], 36.2%; under setting [3], 19.1%.
For `Fc1ccc(-c2cn3nc(Br)sc3n2)cc1` [I-113], the “Replicate 1 z-score” value (replicate 1) was “[15.80]”. Also, for the setting “replicate 2”, the “Replicate 2 z-score” value is “[15.32]”. Further, the pest or weed control at 45 µM came to 100% under setting [2] and 94.4% under setting [3].
For `O=Cc1c(-c2ccc(Cl)cc2)nc2sccn12` [I-93], the “Replicate 1 z-score” value (replicate 1) is “[15.80]”. The “Replicate 2 z-score” value (replicate 2) was “[12.15]”. For the same molecule, the pest or weed control at 45 µM under setting [1] is not below 75%, the pest or weed control at 45 µM under setting [2] was 100% and the pest or weed control at 45 µM under setting [3] came to 76.9%.
With `Cc1ccc(-c2nc3sccn3c2C=O)cc1` [I-152], the “Replicate 1 z-score” value (replicate 1) is “[15.80]”. Further, the “Replicate 2 z-score” value (replicate 2) was “[14.75]”. Further, the pest or weed control at 45 µM by setting is: under setting [2], 100%; under setting [3], 91.3%.
`CCc1nn2cc(-c3ccc(C)cc3C)nc2s1` [I-129]: the “Replicate 1 z-score” value (replicate 1) is “[2.18]”. The “Replicate 2 z-score” value (replicate 2) is “[1.78]”. Also, the pest or weed control at 45 µM under setting [1] was found to be 26.5%, the pest or weed control at 45 µM under setting [2] came to 33.3% and the pest or weed control at 45 µM under setting [3] was found to be 19.6%.
With `O=Cc1c(-c2ccc(F)cc2)nc2sccn12` [I-157], for the setting “replicate 1”, the “Replicate 1 z-score” value is “[15.40]”. Moreover, the “Replicate 2 z-score” value (replicate 2) was “[15.24]”. Also, the pest or weed control at 45 µM is, setting by setting: under setting [2], 98%; under setting [3], 94%.
As to `Cc1nn2cc(-c3ccc(Cl)cc3)nc2s1` [I-158], the “Replicate 1 z-score” value (replicate 1) was “[3.12]”. For the same molecule, the “Replicate 2 z-score” value (replicate 2) was “[8.51]”. Further, the pest or weed control at 45 µM runs as follows: under setting [1], 47.4%; under setting [2], 37.9%; under setting [3], 56.8%.
On to `Nc1c(-c2ccccc2)nc2sccn12` [I-128], for which the “Replicate 1 z-score” value (replicate 1) is “[11.92]”. Moreover, the “Replicate 2 z-score” value (replicate 2) is “[13.69]”. Also, the pest or weed control at 45 µM is not below 75% under setting [1], 81% under setting [2] and 85.5% under setting [3].
On to `Cc1cn2cc(-c3ccc(OC(F)(F)F)cc3)nc2s1` [I-53], for which the “Replicate 1 z-score” value (replicate 1) is “[3.33]”. The “Replicate 2 z-score” value (replicate 2) is “[6.79]”. Besides, the pest or weed control at 45 µM under setting [1] turned out to be 43.1%, the pest or weed control at 45 µM under setting [2] is 39% and the pest or weed control at 45 µM under setting [3] came out at 47.3%.
Take `COCc1nn2cc(-c3ccc(F)cc3)nc2s1` [I-141]: the “Replicate 1 z-score” value (replicate 1) is “[1.89]”. Also, for the setting “replicate 2”, the “Replicate 2 z-score” value is “[4.06]”. For the same molecule, the pest or weed control at 45 µM runs as follows: under setting [1], 32.1%; under setting [2], 31.9%; under setting [3], 32.2%.
Turning to `Brc1nn2cc(-c3ccccc3)nc2s1` [I-159], under “replicate 1”, the “Replicate 1 z-score” value was “[15.34]”. Also, the “Replicate 2 z-score” value (replicate 2) was “[16.33]”. Moreover, the pest or weed control at 45 µM is, setting by setting: under setting [2], 97.8%; under setting [3], 100%.
For `Cc1cn2cc(-c3ccc(OC(F)F)cc3)nc2s1` [I-54], for the setting “replicate 1”, the “Replicate 1 z-score” value is “[1.73]”. Further, the “Replicate 2 z-score” value (replicate 2) was “[2.15]”. Further, the pest or weed control at 45 µM by setting is: under setting [1], 26.4%; under setting [2], 31.1%; under setting [3], 21.7%.
